Test results published in PMC10973839, “CHF6297: a novel potent and selective p38 MAPK inhibitor with robust anti-inflammatory activity and suitable for inhaled pulmonary administration as dry powder” (Frontiers in Pharmacology, 2024).

Columns and labels:
human p38γ [1] = biological target: T1, human p38γ (Homo sapiens, UniProt P53778); assay: KINOMEscan competition binding assay (DiscoverX), p38γ; details: read-out: Kd (mean ± s.d.)
T1 construct: GST; purchased Invitrogen
T1 sequence (P53778 1-367): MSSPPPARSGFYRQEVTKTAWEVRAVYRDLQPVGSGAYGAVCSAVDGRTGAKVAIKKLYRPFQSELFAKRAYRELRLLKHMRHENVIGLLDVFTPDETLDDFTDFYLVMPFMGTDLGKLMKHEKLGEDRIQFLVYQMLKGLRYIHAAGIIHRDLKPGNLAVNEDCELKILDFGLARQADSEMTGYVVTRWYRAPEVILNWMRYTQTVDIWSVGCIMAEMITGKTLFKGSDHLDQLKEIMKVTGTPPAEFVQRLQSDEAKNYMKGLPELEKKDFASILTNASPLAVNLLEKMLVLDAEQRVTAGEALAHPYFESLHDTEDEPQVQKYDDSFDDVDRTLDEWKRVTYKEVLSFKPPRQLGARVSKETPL
Source text: (§1) The KINOMEscan® platform (DiscoverX) was used, which uses a novel and proprietary active site-directed competition binding assay to quantitatively measure the interactions between human p38 isoforms and the target compound.

human p38α = biological target: T2, human p38α (Homo sapiens, UniProt Q16539); assay: KINOMEscan competition binding assay (DiscoverX), p38α; details: read-out: Kd (mean ± s.d.)
T2 construct: purchased DiscoverX
T2 sequence (Q16539 whole entry): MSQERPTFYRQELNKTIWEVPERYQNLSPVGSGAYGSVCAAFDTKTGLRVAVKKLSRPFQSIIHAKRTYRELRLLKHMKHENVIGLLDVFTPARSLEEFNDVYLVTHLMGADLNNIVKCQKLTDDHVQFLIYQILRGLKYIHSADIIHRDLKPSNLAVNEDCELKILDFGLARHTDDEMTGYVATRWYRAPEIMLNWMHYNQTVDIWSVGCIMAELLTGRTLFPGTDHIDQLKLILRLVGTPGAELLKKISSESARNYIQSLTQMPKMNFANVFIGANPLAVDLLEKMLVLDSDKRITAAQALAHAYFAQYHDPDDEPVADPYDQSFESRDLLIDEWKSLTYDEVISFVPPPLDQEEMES
Source text: as §1

human p38γ [2] = biological target: T1, human p38γ; assay: AlphaScreen kinase activity assay, human p38γ; format: biochemical
Protocol: The inhibitory activity of CHF6297 was determined using an AlphaScreen® (PerkinElmer)-based kinase activity assay as previously described ([Armani et al., 2022]). Kinase reactions consisted of 25 mM 4-(2-hydroxyethyl)-1-piperazine ethanesulfonic acid (HEPES), pH 7.5; 10 mM MgCl2; 100 μM Na3VO4; 2 mM DTT; 0.05 mg/mL Tween^TM 20; 100 pM solution of p38α, p38β, p38δ, or p38γ (Invitrogen); 1% DMSO; and 0.3 μg/mL ATF-2 fusion protein (New England Biolabs). Compounds were incubated under these conditions for 2 h, at 25°C, prior to the initiation of kinase activity by the addition of 250 μM ATP. […] Detection was performed by measuring luminescence following the addition of AlphaScreen donor beads (PerkinElmer, 6765300) and Protein A AlphaScreen acceptor beads (PerkinElmer, 6760137), both at a final concentration of 20 μg/mL. IC50 values were determined from concentration–response curves. […]
CHF6297 was tested in biochemical enzymatic assays to determine its potency as an inhibitor of human p38α (MAPK14) and of the other human p38 isoforms, p38β (MAPK11), p38γ ([…]), and p38δ ([…]) ([Armani et al., 2022]). Activity in the primary screening assay was determined using AlphaScreen technology, in which a peptide (ATF2) is phosphorylated by the appropriate GST-tagged p38 protein isoform in the presence of CHF6297 at concentrations from semi-logarithmic dilutions. […]

rat PBMCs = assay: TNF-α release in LPS-stimulated PBMCs; format: cell-based
Protocol: Peripheral blood mononuclear cells (PBMCs) were isolated from the blood of healthy human volunteers and Wistar rats (250–350 gr; Charles River, Calco, Italy) using a standard density gradient centrifugation technique. The citrated blood was placed onto Histopaque^TM and centrifuged. The PBMCs were then removed from the density gradient interface and washed in phosphate-buffered saline (PBS). The PBMCs were suspended in RPMI 1640 medium (without serum), aliquoted into a 96-well plate, and incubated at 37°C for 3 h in a humidified incubator. After incubation, the medium was replaced (with a medium containing 1% fetal bovine serum), and the plate was incubated at 37°C, for 1 h, in the presence of a test compound or the appropriate vehicle. LPS (10 ng/mL), or an appropriate vehicle control, was then added to the cells, and the plate was returned to the incubator for 18 h. Cell-free supernatants were removed and assayed for TNF-α levels using MSD plates on the SECTOR Imager 6000 (Meso Scale).

With C[C@H]1CCCCN1c1nnc2ccc(O[C@@H]3CC[C@H](NC(=O)Nc4cc(C(C)(C)C)nn4-c4cnn(CCN(C)C)c4)c4ccccc43)cn12 [CHF6297] the Kd (human p38γ [1]) was greater than 1000 nM, the Kd (human p38α) was 0.24 ± 0.06 nM and the “IC50 fold-difference vs. human p38α” value (human p38γ [2]) was 6,750. For the same molecule, the IC50 (human p38γ [2]; n = 3, read-out: IC50 (mean ± s.d.)) was 945 ± 58 nM, the IC50 (rat PBMCs; PBMC, LPS 10 ng/mL, 18 h) was 1.4 nM and the “fold less potent than AZD7624” value (rat PBMCs; TNF-α release) was 7 fold.
